From patent US20250345283A1, “MACROPHAGE-DERIVED ENGINEERED VESICLES FOR TARGETED DELIVERY AND TREATMENT” (University of Kentucky Research Foundation, priority 2020, published 2025)

How the values were obtained:
[1] = test system: A549 xenograft; assay: In vivo targeting of DiR-labeled cell-derived vesicles, IVIS imaging; design: species or system mouse; conditions: tail vein injection, imaging 24 h postinjection
Description: Athymic nude mice were injected with A549 cells (NSCLC, immortalized) in the right shoulder and monitored for 3-4 weeks until measurable xenograft tumors were observed. RAW cells were cultured in vitro by standard methods. Cell-derived vesicles were manufactured by the Richards lab as described above and loaded with DiR near-infrared fluorescent dye. Prepared vesicles were administered, and mice were then imaged approximately 24, 48, and 72 hours later. Mice were anesthetized for imaging using isoflurane. Epifluorescence was measured using an IVIS Spectrum In vivo Imaging System (PerkinElmer). Vesicles were labeled with DiR near-infrared fluorescent dye, which was excited at 710 nm, with emission measured at 780 nm. Fluorescent signal intensity (i.e., total radiant efficiency) within regions of interest (ROI) were quantified using Living Image software (PerkinElmer), correcting for background fluorescence using distal site ROI within the same mouse.
RAW264.7 cells (100 million) were scraped in 40 mL of sucrose buffer solution with protease inhibitor. Vesicles were prepared as described above. The cells were labeled using DiR at 2 μM for 30 min at 37° C. Samples were injected intravenously to the mouse, through the tail vein. Approximately 1×10^11 vesicles were delivered per injection. All animal experiments were repeated three times. […]

[2] = test system: A549 xenograft; assay: In vivo delivery of DiR-labeled M1EVs to tumor xenografts, IVIS imaging; design: species or system mouse; conditions: 2×10^10 vesicles, tail vein, imaging 48 and 72 h post injection
Description: A549 cells (1×10^6) were injected subcutaneously into the interscapular region of 6-week-old athymic nude mice. The mice were monitored until palpable xenograft tumors developed greater than 200 mm3. M1EVs were generated using 100 million M1 macrophages by the procedure mentioned above. A NanoSight 300 multiple particle tracking system was used to determine the mean diameter and the concentration of MEVs. M1EVs were then labeled with the DiR near-infrared fluorescent dye. Briefly, 1 μL of 1 mM DiR was added to 199 μL of the vesicle resuspension so that the final concentration of DiR in the vesicle resuspension was 5 µM. DiR-labeled vesicles were separated from free DiR using a size exclusion PD MidiTrap column equilibrated with PBS. 100 μL of DiR-labeled M1EVs was then injected into the lateral tail vein of tumor-bearing mice. Isoflurane gas was used to anesthetize mice for imaging 72 h post injection using an IVIS Spectrum In vivo Imaging System (PerkinElmer) controlled with LivingImage software (PerkinElmer). Epifluorescence images were obtained using 710 nm excitation and 760 nm emission filters, f/stop number 4 and binning factor 4, with a 35 s exposure.
The free dye was separated from MEVs using PD Miniprep columns. […] After the tumor xenograft reached at least 100 mm3, 2×10^10 vesicles were injected through the tail vein of each of the three different mice. […]

[3] = test system: M2 macrophages; assay: Uptake of M1EVs by M2 macrophages in the presence of dynasore; format: cell-based, mouse; conditions: Dynasore 80 μM
Description: Dynamin activity is an integral component of both endocytosis and phagocytosis. Dynasore, a dynamin inhibitor, has been widely used to study the process of internalization of exosomes from the surface of the macrophage. […] The uptake of fluorescently labeled M1EVs by M2 BMDMs was compared in the presence and absence of dynasore. Dynasore (80 μM) was added to cultured macrophages 20 min prior to the addition of labeled vesicles. M2 macrophages were left to incubate with M1EVs for 2 h and subsequently imaged by wide-field microscopy. […] The integrated density of the fluorescence signal was calculated to compare the uptake of M1EVs by M2 macrophages. […] Similar vesicle uptake control experiments were performed in the presence of the vehicle, DMSO, at an equal concentration. There was no significant effect of DMSO on the M1EV uptake process by M2 macrophages relative to the control with no DMSO or dynasore. Macrophages are well-established phagocytotic cells.

[4] = test system: A549 cells; assay: A549 cell viability (alamar blue) after cisplatin-loaded A549 vesicles or free cisplatin; format: cell-based, human; conditions: cisplatin 3 μg
Description: A549 cells (60 million) were used to generate vesicles for delivery. Cells were scraped from culture in 20 mL of sucrose buffer containing protease inhibitor. The cell solution was collected in a 50 mL conical tube and pelleted at 2000 rpm at 25° C. for 2 min. The solution was aspirated off, and the pellet was resuspended in 8 mL of 8.33 mM cisplatin in sucrose buffer solution or 20 mg cisplatin/8 mL sucrose buffer solution plus protease inhibitor. The cell solution was fragmented using N2 cavitation at 300 psi at 4° C. for 5 min. The resulting cell slurry was centrifuged at 4000 g for 10 min at 4° C. The supernatant from centrifugation was transferred to a 25 mL ultracentrifuge tube for 10,000 g centrifugation for 20 min at 4° C. The supernatant from the UCF tube was then transferred to a new 25 mL ultracentrifuge tube and centrifuged at 100,000 g for 60 min at 4° C. The pellet in the UCF tube was washed with 500 μL of sucrose solution, and the residual solution was pipetted out and discarded. Seven hundred fifty microliters of sucrose buffer solution was added to the UCF tube, and the pellet was resuspended via pipetting. Empty vesicles were generated in the exact same way except in the absence of cisplatin. A549 cells (30,000) were plated in each well of a 96-well plate and allowed to seed for 24 h. During that time, the growth media was exchanged for 250 μL of fresh HEK media containing either cisplatin in solution (4.17 mM), cisplatin-loaded vesicles, empty vesicles, or untreated media cisplatin solution in HEK media. The media was aspirated off. Two hundred microliters of Optimem was added followed by 20 μL of alamar blue. […] The plate was read using a FlexStation plate reader. […] Cell viability was determined using a fluorescence assay (alamar blue), where the fluorescence intensity scales with the population of live cells. […] Vesicles were then added to A549 cells in culture, and the cell proliferation was compared to cells alone and those in the presence of free cisplatin in solution at the same levels (3 μg) as were measured in the vesicle solution. […]

CCCCCCCCCCCCCCCCCCN1/C(=C/C=C/C=C/C=C/C2=[N+](CCCCCCCCCCCCCCCCCC)c3ccccc3C2(C)C)C(C)(C)c2ccccc21.[I-] [DiR]
localisation of DiR fluorescence in tumor-bearing mice [1]: nonspecific accumulation | localisation of DiR fluorescence in tumor-bearing mice [2]: nonspecific accumulation

O=C(N/N=C/c1ccc(O)c(O)c1)c1cc2ccccc2cc1O [Dynasore]
effect on cell viability of macrophages [3]: no effect on the cell viability | reduction in uptake of vesicles relative to the control ([3]; M1EVs with M2 macrophages 2 h): 64%

N.N.[Cl][Pt][Cl] [free cisplatin, cisplatin]
A549 cell death ([4]; 24 h): no apparent cell death | A549 cell death ([4]; 48 h): 15% | A549 cell death ([4]; 72 h): 50%
